Test results taken from ChEMBL document CHEMBL1201862, “PubChem BioAssay data set” (2004).
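In this assay, cells in 96-well plates receive the compound at five concentrations for 48 hours. Endpoints are linearly interpolated between the surrounding concentrations. The concentration for 50% growth inhibition is given as GI50.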 Active and inactive are the calls of the source. No stated cut-off is given here; in the data, active = GI50 up to about 1.1 µM and inactive = higher.

How the values were obtained:
Experiment in all cases: NCI-60 cell line screen, 48 h
SW-620 = tested on: SW-620
EKVX = tested on: EKVX
SN12C = tested on: SN12C
SF-539 = tested on: SF-539
HCC 2998 = tested on: HCC 2998
U-251 = tested on: U-251
OVCAR-5 = tested on: OVCAR-5
HL-60 = tested on: HL-60
SR = tested on: SR
UO-31 = tested on: UO-31
RXF 393 = tested on: RXF 393
ACHN = tested on: ACHN
HCT-116 = tested on: HCT-116
HCT-15 = tested on: HCT-15
MOLT-4 = tested on: MOLT-4
MCF7 = tested on: MCF7
MDA-N = tested on: MDA-N
MDA-MB-435 = tested on: MDA-MB-435
MDA-MB-231 = tested on: MDA-MB-231

| Structure (SMILES) | GI50 (SW-620) | GI50 (EKVX) | GI50 (SN12C) | GI50 (SF-539) | GI50 (HCC 2998) | GI50 (U-251) | GI50 (OVCAR-5) | GI50 (HL-60) | GI50 (SR) | GI50 (UO-31) | GI50 (RXF 393) | GI50 (ACHN) | GI50 (HCT-116) | GI50 (HCT-15) | GI50 (MOLT-4) | GI50 (MCF7) | GI50 (MDA-N) | GI50 (MDA-MB-435) | GI50 (MDA-MB-231) |
| --- | --- | --- | --- | --- | --- | --- | --- | --- | --- | --- | --- | --- | --- | --- | --- | --- | --- | --- | --- |
| CC(=O)C1=C(C)NC2C=CC=CN12 (stereo not drawn) | > 100 µM (inactive) | > 100 µM (inactive) | > 100 µM (inactive) | > 100 µM (inactive) | > 100 µM (inactive) | > 100 µM (inactive) | > 100 µM (inactive) | > 100 µM (inactive) | > 100 µM (inactive) | > 100 µM (inactive) | > 100 µM (inactive) | > 100 µM (inactive) | > 100 µM (inactive) | > 100 µM | > 100 µM (inactive) |  |  |  |  |
| Nc1nc(Cl)cc(OCC2(CO)CC=CC2)n1 | > 100 µM (inactive) | > 100 µM (inactive) | > 100 µM (inactive) | > 100 µM (inactive) | > 100 µM (inactive) | 46.2 µM (inactive) | > 100 µM (inactive) | > 100 µM (inactive) | > 100 µM (inactive) |  | > 100 µM (inactive) | > 100 µM (inactive) | > 100 µM (inactive) | > 100 µM | > 100 µM (inactive) | > 100 µM (inactive) | > 100 µM (inactive) | > 100 µM (inactive) |  |
| O=S1(=O)N=C(NCc2c[nH]c3ccccc23)N(c2ccccc2)c2ccncc21 | > 100 µM (inactive) | 64.9 µM (inactive) | 81.7 µM (inactive) | 66.4 µM (inactive) | > 100 µM (inactive) | 49.4 µM (inactive) | > 100 µM (inactive) | > 100 µM (inactive) |  | 5.25 µM (inactive) | > 100 µM (inactive) | > 100 µM (inactive) | > 100 µM (inactive) | > 100 µM | > 100 µM (inactive) | > 100 µM (inactive) |  | > 100 µM (inactive) | > 100 µM (inactive) |
| Cc1cc(NCC2CC/C(=C\C=C\c3ccccc3)C2=O)no1 (stereo not drawn) | > 100 µM (inactive) | > 100 µM (inactive) | > 100 µM (inactive) | > 100 µM (inactive) | > 100 µM (inactive) | 40.2 µM (inactive) | > 100 µM (inactive) | 42.7 µM (inactive) | 36.9 µM (inactive) | 51.3 µM (inactive) | > 100 µM (inactive) | 93.8 µM (inactive) | > 100 µM (inactive) | 67.3 µM | 49.3 µM (inactive) | 63.4 µM (inactive) |  | > 100 µM (inactive) | 98.4 µM (inactive) |
| CC(=O)N[C@@H](Cc1ccc(O)cn1)C(=O)NCc1cccc(Cl)c1 | > 100 µM (inactive) | > 100 µM (inactive) | > 100 µM (inactive) | > 100 µM (inactive) | > 100 µM (inactive) | > 100 µM (inactive) | > 100 µM (inactive) | 37.8 µM (inactive) | > 100 µM (inactive) | > 100 µM (inactive) | > 100 µM (inactive) | > 100 µM (inactive) | > 100 µM (inactive) | > 100 µM | > 100 µM (inactive) | > 100 µM (inactive) | > 100 µM (inactive) | > 100 µM (inactive) |  |
| O=C1C=C(O)c2nc(O)ccc2C1=O | > 100 µM (inactive) | > 100 µM (inactive) | > 100 µM (inactive) | > 100 µM (inactive) | > 100 µM (inactive) | > 100 µM (inactive) |  | > 100 µM (inactive) | > 100 µM (inactive) | > 100 µM (inactive) | > 100 µM (inactive) | > 100 µM (inactive) | > 100 µM (inactive) | > 100 µM | > 100 µM (inactive) |  |  |  |  |
| CC(=O)Nc1ccc(-c2nc3ccccc3s2)cc1O | 84.5 µM (inactive) |  | 30.4 µM (inactive) |  | 30.6 µM (inactive) | 37.4 µM (inactive) | 23 µM (inactive) |  | 61.9 µM (inactive) | 19.6 µM (inactive) | > 100 µM (inactive) | 27.3 µM (inactive) | 56.1 µM (inactive) | 41.2 µM | 14.6 µM (inactive) |  | 29.6 µM (inactive) | 37.8 µM (inactive) | 78.2 µM (inactive) |
| CCN(CC)c1ccc2cc(C(N)=O)c(=N)oc2c1 | 47.4 µM (inactive) |  | 31.3 µM (inactive) | 4.15 µM (inactive) | 5.36 µM (inactive) | 98.6 µM (inactive) | 51.5 µM (inactive) | 36.5 µM (inactive) | 14.6 µM (inactive) |  | 55 µM (inactive) | 32.7 µM (inactive) | 35.1 µM (inactive) | 35 µM | 69.2 µM (inactive) |  | 38.2 µM (inactive) | 30.9 µM (inactive) | 32.1 µM (inactive) |
| Cc1c(/C=N/NC(=S)Nc2cccc(Cl)c2)c(=O)n(-c2ccccc2)n1C | 51.2 µM (inactive) | 6.65 µM (inactive) |  | 17.1 µM (inactive) | 55.6 µM (inactive) | 20.7 µM (inactive) |  | 24 µM (inactive) | 50.1 µM (inactive) | 15.3 µM (inactive) | 15.8 µM (inactive) | 14.7 µM (inactive) | 34 µM (inactive) | 3.91 µM | 31.3 µM (inactive) | 24.2 µM (inactive) |  | > 100 µM (inactive) | 17.6 µM (inactive) |
| COc1ccc2c(c1)c1c(n2CCN2CCCCC2)-c2ccccc2CC1 | 17.4 µM (inactive) | 17.9 µM (inactive) | 16.9 µM (inactive) | 13.6 µM (inactive) | 6.78 µM (inactive) | 14.4 µM (inactive) | 16.9 µM (inactive) |  | 11.4 µM (inactive) | 13.3 µM (inactive) |  | 17.2 µM (inactive) | 16.2 µM (inactive) | 11.5 µM | 14.6 µM (inactive) | 14.3 µM (inactive) |  | 17.5 µM (inactive) | 16.4 µM (inactive) |
| COc1cc(S(=O)(=O)Nc2ccc(-c3csc(/N=C\c4cccc(Oc5ccccc5)c4)n3)cc2)ccc1Cl | 40.3 µM (inactive) | 8.39 µM (inactive) | 25.1 µM (inactive) | 33.9 µM (inactive) |  |  | 26.3 µM (inactive) | 23.2 µM (inactive) | 21.1 µM (inactive) | 29.9 µM (inactive) | 20.1 µM (inactive) | 15.5 µM (inactive) | 14.6 µM (inactive) | 35.6 µM | 23 µM (inactive) | 5.2 µM (inactive) |  | 30.8 µM (inactive) |  |
| COc1cc2c(c(O)c1O)C(=O)C1CCC(=O)N1C2c1cccc2ccccc12 (stereo not drawn) | > 50 µM (inactive) | > 50 µM (inactive) | > 50 µM (inactive) | > 50 µM (inactive) |  | > 50 µM (inactive) | > 50 µM (inactive) | > 50 µM (inactive) | > 50 µM (inactive) | > 50 µM (inactive) | 6.28 µM (inactive) | > 50 µM (inactive) | > 50 µM (inactive) | > 50 µM | > 50 µM (inactive) | > 50 µM (inactive) | > 50 µM (inactive) | > 50 µM (inactive) |  |
| COc1cc(C2c3cc4c(cc3[C@@H](Nc3ccc(F)cc3)C3CO[C@@H](O)[C@H]23)OCO4)cc(OC)c1O (stereo partly drawn) | 8.38 µM (inactive) | 14.4 µM (inactive) | 5.12 µM (inactive) | 1.03 µM (active) | 11 µM (inactive) | 1.69 µM (inactive) | 1.46 µM (inactive) | 0.598 µM (active) |  | 1.24 µM (inactive) |  | 1.05 µM (active) | 3.72 µM (inactive) | 3.89 µM | 0.236 µM (active) | 1.9 µM (inactive) | 22.2 µM (inactive) | 12.3 µM (inactive) | 3.48 µM (inactive) |
| C/C(=N\Nc1nc2ccccc2o1)c1ccncn1 | 0.0455 µM (active) | 0.0526 µM (active) | 0.225 µM (active) | 0.258 µM (active) | 1.02 µM (active) | 0.162 µM (active) | 4.36 µM (inactive) | 0.0218 µM (active) | 0.0647 µM (active) | 0.0479 µM (active) | 2.29 µM (inactive) | 0.0638 µM (active) | 0.0713 µM (active) | 0.0476 µM | 0.0305 µM (active) | 0.0556 µM (active) |  | 0.247 µM (active) | 0.169 µM (active) |
| C#C[C@]1(O)CC[C@H]2[C@@H]3CCC4=C/C(=N/CCOC(=O)c5cccc6c(=O)c7ccccc7[nH]c56)CC[C@@H]4[C@H]3CC[C@@]21C | 45.2 µM (inactive) | 46.3 µM (inactive) | 74.5 µM (inactive) |  |  | 16.4 µM (inactive) | > 100 µM (inactive) | 23.1 µM (inactive) |  | 37.8 µM (inactive) | 5.62 µM (inactive) | 40.4 µM (inactive) | 42.9 µM (inactive) | 45 µM | 25.9 µM (inactive) | 26.1 µM (inactive) | 50.7 µM (inactive) | 31.8 µM (inactive) | 15.7 µM (inactive) |
| Cn1nc(C(=O)N2CC(CCl)c3c2cc([N+](=O)[O-])c2ccccc32)cc1NC(=O)Nc1cc(C(=O)N2CC(CCl)c3c2cc([N+](=O)[O-])c2ccccc32)nn1C (stereo not drawn) |  | > 100 µM (inactive) | > 100 µM (inactive) | 0.0745 µM (active) | > 100 µM (inactive) | 68.9 µM (inactive) | > 100 µM (inactive) |  |  | > 100 µM (inactive) |  | > 100 µM (inactive) | > 100 µM (inactive) | > 100 µM | > 100 µM (inactive) | > 100 µM (inactive) | > 100 µM (inactive) | > 100 µM (inactive) | > 100 µM (inactive) |
| CC(=O)OCc1cccc(O)c1C(=O)CCC=C(C)C | > 100 µM (inactive) | > 100 µM (inactive) | > 100 µM (inactive) | > 100 µM (inactive) | > 100 µM (inactive) | > 100 µM (inactive) | 29.3 µM (inactive) | 34.7 µM (inactive) | > 100 µM (inactive) | > 100 µM (inactive) | > 100 µM (inactive) | > 100 µM (inactive) | > 100 µM (inactive) | > 100 µM | > 100 µM (inactive) | > 100 µM (inactive) | > 100 µM (inactive) | > 100 µM (inactive) |  |
